What was measured:
[1] = test system: SAGPY (Arrowhead (Pygmaea)); assay: Preemergence weed control under flooded paddy conditions; assay type: in vivo, Sagittaria pygmaea; conditions: rated 3-4 weeks after treatment
Summary of the method: (§1)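 Flooded-pot preemergence screen with silt loam and seeds in the upper 0.5 cm. Dose about 0.0313 to 0.500 kg/ha, delivered into flood water; visual 0-9 score after 3 to 4 weeks.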

[2] = test system: IPOHE (Morningglory, Ivyleaf); assay: Postemergence herbicidal evaluation; assay type: in vivo, Ipomoea hederacea
Summary of the method: (§2)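 ~2-wk seedlings; postemergence spray, 40 psi; vehicle 1:1 acetone:water + 0.5% Tween 20; rate ≈0.0156–0.500 kg/ha; greenhouse hold; scored 4–5 wk after treatment, 0–9 scale vs control; repeat tests averaged.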

[3] = test system: ZEAMX (Corn, Field); assay: Postemergence herbicidal evaluation; assay type: in vivo, Zea mays
Summary of the method: as §2

[4] = test system: GLXMAW (Soybean, Williams); assay: Preemergence herbicidal evaluation; assay type: in vivo, Glycine max, (L.) Merr. cv Williams; conditions: rated 4-5 weeks after treatment
Summary of the method: (§3)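 Test compound, dissolved in aqueous acetone, was sprayed over planted soil cups at an equivalent of about 0.0156 to 0.500 kg/ha; seeds had been mixed with potting soil. Greenhouse growth followed, with visual 0-9 scoring of injury at four to five weeks.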

[5] = test system: ABUTH (Velvetleaf); assay: Preemergence herbicidal evaluation; assay type: in vivo, Abutilon theophrasti; conditions: rated 4-5 weeks after treatment
Summary of the method: as §3

[6] = test system: GALAP (Galium); assay: Preemergence herbicidal evaluation; assay type: in vivo, Galium aparine; conditions: rated 4-5 weeks after treatment
Summary of the method: as §3

[7] = test system: AMBEL (Ragweed, Common); assay: Preemergence herbicidal evaluation; assay type: in vivo, Ambrosia artemisifolia; conditions: rated 4-5 weeks after treatment
Summary of the method: as §3

[8] = test system: SETVI (Foxtail, Green); assay: Preemergence herbicidal evaluation; assay type: in vivo, Setaria viridis; conditions: rated 4-5 weeks after treatment
Summary of the method: as §3

[9] = test system: GLXMAW (Soybean, Williams); assay: Postemergence herbicidal evaluation; assay type: in vivo, Glycine max, (L.) Merr. cv Williams
Summary of the method: as §2

[10] = test system: ECHORC (Watergrass (Calif.)); assay: Postemergence weed control under flooded paddy conditions; assay type: in vivo, Echinochloa oryzoides; conditions: postemergence weeds, 3-4 weeks after treatment
Summary of the method: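 Herbicidal effect is judged by eye on a 0–9 scale versus control, 3–4 weeks after dosing. Dosing is into flood water kept 1.5–3 cm over the soil, at about 0.0313–0.500 kg/ha in aqueous/acetone 50/50 v/v, on 3–5 cm weeds and 1.5–2.5-leaf rice seedlings.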

[11] = test system: ECHCG (Barnyardgrass); assay: Preemergence herbicidal evaluation; assay type: in vivo, Echinochloa crus-galli; conditions: rated 4-5 weeks after treatment
Summary of the method: as §3

[12] = test system: CASOB (Sicklepod); assay: Preemergence herbicidal evaluation; assay type: in vivo, Cassia obtusifolia; conditions: rated 4-5 weeks after treatment
Summary of the method: as §3

[13] = test system: AMBEL (Ragweed, Common); assay: Postemergence herbicidal evaluation; assay type: in vivo, Ambrosia artemisifolia
Summary of the method: as §2

[14] = test system: CYPSE (Flatsedge); assay: Preemergence weed control under flooded paddy conditions; assay type: in vivo, Cyperus serotinus; conditions: rated 3-4 weeks after treatment
Summary of the method: as §1

With `CCOC(=O)CN1C(=O)C(CC(=O)OCc2ccccc2)OC1=Nc1cc(-n2c(=O)cc(C(F)(F)F)n(C)c2=O)c(F)cc1Cl` (stereo not shown) [Compound 40, 2-{{2-Chloro-5-[3,6-dihydro-3-methyl-2,6-dioxo-4-(trifluoromethyl)-1(2H)-pyrimidinyl]-4-fluorophenyl}imino}-4-oxo-3,5-oxazolidinediacetic acid, 5-benzyl ethyl ester] the “Herbicidal rating SAGPY” value ([1]; 0.0313 kg/ha) was 0.0, the “Herbicidal rating SAGPY” value ([1]; 0.0625 kg/ha) was 0.0 and the “Herbicidal rating SAGPY” value ([1]; 0.1250 kg/ha) was 0.0. The “Herbicidal rating SAGPY” value ([1]; 0.2500 kg/ha) was 0.0, the “Postemergence herbicidal rating IPOHE” value ([2]; Rate 0.0158 kg/ha) was 9.0 and the “Postemergence herbicidal rating IPOHE” value ([2]; Rate 0.0315 kg/ha) was 9.0. For the same compound, the “Postemergence herbicidal rating IPOHE” value ([2]; Rate 0.0630 kg/ha) was 9.0, the “Postemergence herbicidal rating ZEAMX” value ([3]; Rate 0.0158 kg/ha) was 7.0 and the “Postemergence herbicidal rating ZEAMX” value ([3]; Rate 0.0315 kg/ha) was 7.5. For the same compound, the “Postemergence herbicidal rating ZEAMX” value ([3]; Rate 0.0630 kg/ha) was 8.5, the “Preemergence herbicidal rating GLXMAW” value ([4]; rate 0.0313 kg/ha) was 0.0 and the “Preemergence herbicidal rating GLXMAW” value ([4]; rate 0.0625 kg/ha) was 0.0. For the same compound, the “Preemergence herbicidal rating GLXMAW” value ([4]; rate 0.1250 kg/ha) was 1.0, the “Preemergence herbicidal rating GLXMAW” value ([4]; rate 0.2500 kg/ha) was 3.0 and the “Preemergence herbicidal rating ABUTH” value ([5]; rate 0.0313 kg/ha) was 0.0. For the same compound, the “Preemergence herbicidal rating ABUTH” value ([5]; rate 0.0625 kg/ha) was 6.0, the “Preemergence herbicidal rating ABUTH” value ([5]; rate 0.1250 kg/ha) was 9.0 and the “Preemergence herbicidal rating ABUTH” value ([5]; rate 0.2500 kg/ha) was 9.0. The “Preemergence herbicidal rating GALAP” value ([6]; rate 0.0313 kg/ha) was 0.0, the “Preemergence herbicidal rating GALAP” value ([6]; rate 0.0625 kg/ha) was 0.0 and the “Preemergence herbicidal rating GALAP” value ([6]; rate 0.1250 kg/ha) was 0.0. For the same compound, the “Preemergence herbicidal rating GALAP” value ([6]; rate 0.2500 kg/ha) was 0.0, the “Preemergence herbicidal rating AMBEL” value ([7]; rate 0.0313 kg/ha) was 0.0 and the “Preemergence herbicidal rating AMBEL” value ([7]; rate 0.0625 kg/ha) was 2.0. The “Preemergence herbicidal rating AMBEL” value ([7]; rate 0.1250 kg/ha) was 6.0, the “Preemergence herbicidal rating AMBEL” value ([7]; rate 0.2500 kg/ha) was 6.0 and the “Preemergence herbicidal rating SETVI” value ([8]; rate 0.0313 kg/ha) was 0.0. The “Preemergence herbicidal rating SETVI” value ([8]; rate 0.0625 kg/ha) was 0.0, the “Preemergence herbicidal rating SETVI” value ([8]; rate 0.1250 kg/ha) was 6.0 and the “Preemergence herbicidal rating SETVI” value ([8]; rate 0.2500 kg/ha) was 6.0. The “Postemergence herbicidal rating GLXMAW” value ([9]; Rate 0.0158 kg/ha) was 7.0, the “Postemergence herbicidal rating GLXMAW” value ([9]; Rate 0.0315 kg/ha) was 9.0 and the “Postemergence herbicidal rating GLXMAW” value ([9]; Rate 0.0630 kg/ha) was 8.0. The “Herbicidal rating ECHORC” value ([10]; rate 0.0313 kg/ha) was 5.0, the “Herbicidal rating ECHORC” value ([10]; rate 0.0625 kg/ha) was 5.0 and the “Herbicidal rating ECHORC” value ([10]; rate 0.1250 kg/ha) was 5.0. The “Herbicidal rating ECHORC” value ([10]; rate 0.2500 kg/ha) was 9.0, the “Preemergence herbicidal rating ECHCG” value ([11]; rate 0.0313 kg/ha) was 0.0 and the “Preemergence herbicidal rating ECHCG” value ([11]; rate 0.0625 kg/ha) was 0.0. The “Preemergence herbicidal rating ECHCG” value ([11]; rate 0.1250 kg/ha) was 1.0, the “Preemergence herbicidal rating ECHCG” value ([11]; rate 0.2500 kg/ha) was 1.0 and the “Preemergence herbicidal rating CASOB” value ([12]; rate 0.0313 kg/ha) was 0.0. The “Preemergence herbicidal rating CASOB” value ([12]; rate 0.0625 kg/ha) was 0.0, the “Preemergence herbicidal rating CASOB” value ([12]; rate 0.1250 kg/ha) was 0.0 and the “Preemergence herbicidal rating CASOB” value ([12]; rate 0.2500 kg/ha) was 1.0. For the same compound, the “Postemergence herbicidal rating AMBEL” value ([13]; Rate 0.0158 kg/ha) was 9.0, the “Postemergence herbicidal rating AMBEL” value ([13]; Rate 0.0315 kg/ha) was 9.0 and the “Postemergence herbicidal rating AMBEL” value ([13]; Rate 0.0630 kg/ha) was 9.0. The “Herbicidal rating CYPSE” value ([14]; 0.0313 kg/ha) was 0.0, the “Herbicidal rating CYPSE” value ([14]; 0.0625 kg/ha) was 0.0 and the “Herbicidal rating CYPSE” value ([14]; 0.1250 kg/ha) was 0.0. For the same compound, the “Herbicidal rating CYPSE” value ([14]; 0.2500 kg/ha) was 6.0.

— patent US20020137929A1, “1 - (3-heterocyclylphenyl) isothiourea, -isourea, -guanidine and -amidine herbicidal agents” (Intellectual Property Department, BASF Aktiengesellschaft, priority 1998, published 2002)
